Measurements taken from ChEMBL document CHEMBL5465560, “Selectivity Literature for EUbOPEN Chemogenomic Library” (2024).

Legend:
[1] = target: Death-associated protein kinase 3 (Homo sapiens) (UniProt O43293); test: Selectivity interaction (KinomeScan (DiscoverX)) EUB0000229b DAPK3; conditions: at 10 µM
[2] = target: Histone-lysine N-methyltransferase SETD2 (Homo sapiens) (UniProt Q9BYW2); conditions: at 1 µM
[3] = target: Mitogen-activated protein kinase 10 (Homo sapiens, UniProt P53779); test: Selectivity interaction (Kinase panel (DSF assay)) EUB0001559a MAPK10
Sequence of Mitogen-activated protein kinase 10 (P53779 whole entry): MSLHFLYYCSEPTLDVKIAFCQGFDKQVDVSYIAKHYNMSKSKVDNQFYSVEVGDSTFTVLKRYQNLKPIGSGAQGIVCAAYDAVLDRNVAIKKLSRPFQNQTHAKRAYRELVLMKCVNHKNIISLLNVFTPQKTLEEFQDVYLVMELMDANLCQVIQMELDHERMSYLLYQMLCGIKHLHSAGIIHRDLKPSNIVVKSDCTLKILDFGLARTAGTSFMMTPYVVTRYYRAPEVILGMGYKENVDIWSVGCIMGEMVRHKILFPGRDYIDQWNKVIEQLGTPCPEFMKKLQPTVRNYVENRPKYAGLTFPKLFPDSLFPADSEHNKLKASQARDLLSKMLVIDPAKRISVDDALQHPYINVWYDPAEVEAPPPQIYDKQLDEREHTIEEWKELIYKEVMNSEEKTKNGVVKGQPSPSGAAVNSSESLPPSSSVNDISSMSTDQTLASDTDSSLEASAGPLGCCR

[4] = target: T1, Myotonin-protein kinase (Homo sapiens) (UniProt Q09013); test: Selectivity interaction (KinomeScan (DiscoverX)) EUB0000045b DMPK
T1 sequence (whole entry): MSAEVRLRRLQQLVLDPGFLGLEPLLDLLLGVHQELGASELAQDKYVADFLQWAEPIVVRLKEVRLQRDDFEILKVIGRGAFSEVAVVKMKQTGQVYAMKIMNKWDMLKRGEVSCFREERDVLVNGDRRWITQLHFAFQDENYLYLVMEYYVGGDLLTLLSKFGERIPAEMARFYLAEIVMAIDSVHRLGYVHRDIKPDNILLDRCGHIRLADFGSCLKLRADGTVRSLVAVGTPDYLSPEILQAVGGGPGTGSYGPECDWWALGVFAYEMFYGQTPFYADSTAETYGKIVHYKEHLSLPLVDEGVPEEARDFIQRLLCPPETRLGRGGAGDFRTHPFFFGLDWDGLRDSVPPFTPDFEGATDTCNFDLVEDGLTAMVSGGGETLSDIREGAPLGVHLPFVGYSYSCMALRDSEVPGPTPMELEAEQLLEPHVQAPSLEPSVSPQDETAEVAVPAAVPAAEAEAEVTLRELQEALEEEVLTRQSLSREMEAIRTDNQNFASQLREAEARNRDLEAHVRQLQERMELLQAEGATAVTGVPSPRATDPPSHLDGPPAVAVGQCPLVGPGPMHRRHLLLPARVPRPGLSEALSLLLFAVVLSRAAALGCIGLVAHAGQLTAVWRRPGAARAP

[5] = target: Eukaryotic translation initiation factor 2-alpha kinase 3 (Homo sapiens, UniProt Q9NZJ5)
Sequence of Eukaryotic translation initiation factor 2-alpha kinase 3 (Q9NZJ5 whole entry): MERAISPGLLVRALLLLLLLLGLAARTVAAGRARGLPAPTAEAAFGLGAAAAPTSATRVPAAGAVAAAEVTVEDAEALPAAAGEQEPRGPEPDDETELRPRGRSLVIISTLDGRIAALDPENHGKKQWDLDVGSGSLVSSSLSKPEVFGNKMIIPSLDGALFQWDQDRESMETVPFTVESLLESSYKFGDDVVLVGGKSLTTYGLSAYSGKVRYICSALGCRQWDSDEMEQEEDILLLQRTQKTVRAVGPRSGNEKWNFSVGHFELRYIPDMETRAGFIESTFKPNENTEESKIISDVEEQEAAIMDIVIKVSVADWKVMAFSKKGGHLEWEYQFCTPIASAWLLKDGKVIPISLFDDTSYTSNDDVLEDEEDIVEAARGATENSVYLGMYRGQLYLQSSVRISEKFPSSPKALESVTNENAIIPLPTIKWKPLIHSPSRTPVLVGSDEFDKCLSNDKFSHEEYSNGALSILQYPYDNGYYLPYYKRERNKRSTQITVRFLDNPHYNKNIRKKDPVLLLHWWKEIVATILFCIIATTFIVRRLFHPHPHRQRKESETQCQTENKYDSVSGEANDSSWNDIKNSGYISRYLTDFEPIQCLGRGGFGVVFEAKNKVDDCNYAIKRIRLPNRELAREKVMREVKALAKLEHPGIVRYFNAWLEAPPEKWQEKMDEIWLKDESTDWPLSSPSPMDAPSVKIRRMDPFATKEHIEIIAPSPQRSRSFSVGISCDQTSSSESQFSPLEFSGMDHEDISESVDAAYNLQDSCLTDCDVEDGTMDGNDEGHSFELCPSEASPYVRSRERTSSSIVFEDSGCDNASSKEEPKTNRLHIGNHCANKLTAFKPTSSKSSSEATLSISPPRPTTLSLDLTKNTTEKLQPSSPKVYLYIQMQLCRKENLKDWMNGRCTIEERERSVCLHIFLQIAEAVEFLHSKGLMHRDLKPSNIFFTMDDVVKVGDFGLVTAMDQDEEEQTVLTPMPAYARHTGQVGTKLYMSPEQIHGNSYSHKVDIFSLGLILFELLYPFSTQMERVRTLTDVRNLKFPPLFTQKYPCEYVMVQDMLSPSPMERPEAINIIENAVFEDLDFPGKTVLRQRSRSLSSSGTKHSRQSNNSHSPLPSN

[6] = target: Substance-P receptor (Homo sapiens) (UniProt P25103); test: Selectivity interaction (Panel of kinases, GPCRs, ion channels and transporters (enzymatic assay)) EUB0000223bCl TACR1
Sequence of Substance-P receptor (Homo sapiens) (P25103 whole entry): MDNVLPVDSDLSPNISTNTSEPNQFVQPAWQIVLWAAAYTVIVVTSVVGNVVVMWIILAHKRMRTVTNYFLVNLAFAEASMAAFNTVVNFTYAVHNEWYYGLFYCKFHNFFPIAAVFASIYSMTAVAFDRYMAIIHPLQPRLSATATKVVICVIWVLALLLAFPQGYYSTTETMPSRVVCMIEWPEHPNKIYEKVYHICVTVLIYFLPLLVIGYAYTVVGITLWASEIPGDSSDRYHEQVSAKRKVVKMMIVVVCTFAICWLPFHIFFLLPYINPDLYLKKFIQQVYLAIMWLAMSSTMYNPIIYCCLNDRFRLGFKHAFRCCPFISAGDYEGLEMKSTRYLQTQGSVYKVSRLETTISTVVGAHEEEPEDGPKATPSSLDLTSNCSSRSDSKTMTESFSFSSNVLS

[7] = target: T2, Mitogen-activated protein kinase 13 (Homo sapiens) (UniProt O15264); test: Selectivity interaction (KinomeScan (DiscoverX)) EUB0001619a MAPK13; conditions: at 1 µM
T2 sequence (whole entry): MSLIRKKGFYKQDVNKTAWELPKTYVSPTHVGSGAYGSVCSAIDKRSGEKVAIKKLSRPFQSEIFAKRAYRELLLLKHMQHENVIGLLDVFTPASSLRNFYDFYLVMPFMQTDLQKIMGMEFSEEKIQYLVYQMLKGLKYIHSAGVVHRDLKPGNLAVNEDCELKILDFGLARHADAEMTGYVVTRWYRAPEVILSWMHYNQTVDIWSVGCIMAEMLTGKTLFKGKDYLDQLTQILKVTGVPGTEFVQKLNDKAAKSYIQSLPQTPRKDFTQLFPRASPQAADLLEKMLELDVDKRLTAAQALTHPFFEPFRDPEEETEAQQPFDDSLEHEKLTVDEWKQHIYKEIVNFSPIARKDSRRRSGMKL

[8] = target: T3, Bone morphogenetic protein receptor type-2 (Homo sapiens) (UniProt Q13873); test: Selectivity interaction (Kinase panel (DSF assay)) EUB0001558a BMPR2
T3 sequence (whole entry): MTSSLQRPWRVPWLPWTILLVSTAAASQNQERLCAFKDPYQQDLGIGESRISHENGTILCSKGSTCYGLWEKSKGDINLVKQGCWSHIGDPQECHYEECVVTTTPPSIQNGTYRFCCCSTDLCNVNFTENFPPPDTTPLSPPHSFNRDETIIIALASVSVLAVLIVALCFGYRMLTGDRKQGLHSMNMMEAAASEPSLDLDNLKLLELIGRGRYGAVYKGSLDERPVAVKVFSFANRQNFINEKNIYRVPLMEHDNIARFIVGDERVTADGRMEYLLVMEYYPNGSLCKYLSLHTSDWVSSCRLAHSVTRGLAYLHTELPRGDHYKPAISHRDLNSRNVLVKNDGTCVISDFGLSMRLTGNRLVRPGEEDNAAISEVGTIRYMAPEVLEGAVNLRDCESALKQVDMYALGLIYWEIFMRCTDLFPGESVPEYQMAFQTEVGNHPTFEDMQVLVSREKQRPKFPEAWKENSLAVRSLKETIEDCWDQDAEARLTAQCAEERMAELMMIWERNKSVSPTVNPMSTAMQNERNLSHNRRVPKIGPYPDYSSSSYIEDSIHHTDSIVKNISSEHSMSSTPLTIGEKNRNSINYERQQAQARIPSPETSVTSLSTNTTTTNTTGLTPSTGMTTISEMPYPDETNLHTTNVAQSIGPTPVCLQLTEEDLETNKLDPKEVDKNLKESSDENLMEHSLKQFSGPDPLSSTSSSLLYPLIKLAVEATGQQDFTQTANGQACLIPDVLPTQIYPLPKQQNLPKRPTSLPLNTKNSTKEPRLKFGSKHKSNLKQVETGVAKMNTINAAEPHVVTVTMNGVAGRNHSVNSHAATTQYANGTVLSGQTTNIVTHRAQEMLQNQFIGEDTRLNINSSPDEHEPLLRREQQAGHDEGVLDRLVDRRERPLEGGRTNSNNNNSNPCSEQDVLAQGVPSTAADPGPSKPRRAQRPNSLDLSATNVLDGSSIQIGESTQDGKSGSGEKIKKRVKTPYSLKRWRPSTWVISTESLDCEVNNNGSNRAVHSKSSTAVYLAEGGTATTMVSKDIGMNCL

[9] = target: Ribosomal protein S6 kinase alpha-3 (Homo sapiens, UniProt P51812); test: Selectivity interaction (ActivX KiNativ screen (kinase selectivity in THP-1 cell lysates)) EUB0000639a RPS6KA3; type: subcellular; conditions: lysate, at 0.01 µM
Sequence of Ribosomal protein S6 kinase alpha-3 (P51812 whole entry): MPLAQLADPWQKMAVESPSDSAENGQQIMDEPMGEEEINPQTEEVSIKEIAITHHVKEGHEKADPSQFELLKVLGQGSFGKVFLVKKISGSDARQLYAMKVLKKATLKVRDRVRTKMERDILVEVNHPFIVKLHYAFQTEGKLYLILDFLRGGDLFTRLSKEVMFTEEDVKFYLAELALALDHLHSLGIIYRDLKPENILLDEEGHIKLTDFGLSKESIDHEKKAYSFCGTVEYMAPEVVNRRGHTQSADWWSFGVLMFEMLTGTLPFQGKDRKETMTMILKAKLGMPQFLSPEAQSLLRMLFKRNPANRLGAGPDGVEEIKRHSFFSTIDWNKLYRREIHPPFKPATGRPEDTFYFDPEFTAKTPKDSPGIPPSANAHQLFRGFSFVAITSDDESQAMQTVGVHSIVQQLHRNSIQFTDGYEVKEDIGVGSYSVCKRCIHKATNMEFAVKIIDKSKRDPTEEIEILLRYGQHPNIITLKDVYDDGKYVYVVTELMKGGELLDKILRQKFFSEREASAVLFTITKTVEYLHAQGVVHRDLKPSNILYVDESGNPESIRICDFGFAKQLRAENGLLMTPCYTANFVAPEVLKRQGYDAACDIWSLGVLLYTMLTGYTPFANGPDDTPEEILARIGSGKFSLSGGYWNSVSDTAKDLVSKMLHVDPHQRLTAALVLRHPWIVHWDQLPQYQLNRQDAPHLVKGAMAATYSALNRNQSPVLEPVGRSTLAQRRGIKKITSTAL

[10] = target: SRSF protein kinase 2 (Homo sapiens) (UniProt P78362); conditions: at 10 µM
Sequence of SRSF protein kinase 2 (Homo sapiens) (P78362 whole entry, looked up): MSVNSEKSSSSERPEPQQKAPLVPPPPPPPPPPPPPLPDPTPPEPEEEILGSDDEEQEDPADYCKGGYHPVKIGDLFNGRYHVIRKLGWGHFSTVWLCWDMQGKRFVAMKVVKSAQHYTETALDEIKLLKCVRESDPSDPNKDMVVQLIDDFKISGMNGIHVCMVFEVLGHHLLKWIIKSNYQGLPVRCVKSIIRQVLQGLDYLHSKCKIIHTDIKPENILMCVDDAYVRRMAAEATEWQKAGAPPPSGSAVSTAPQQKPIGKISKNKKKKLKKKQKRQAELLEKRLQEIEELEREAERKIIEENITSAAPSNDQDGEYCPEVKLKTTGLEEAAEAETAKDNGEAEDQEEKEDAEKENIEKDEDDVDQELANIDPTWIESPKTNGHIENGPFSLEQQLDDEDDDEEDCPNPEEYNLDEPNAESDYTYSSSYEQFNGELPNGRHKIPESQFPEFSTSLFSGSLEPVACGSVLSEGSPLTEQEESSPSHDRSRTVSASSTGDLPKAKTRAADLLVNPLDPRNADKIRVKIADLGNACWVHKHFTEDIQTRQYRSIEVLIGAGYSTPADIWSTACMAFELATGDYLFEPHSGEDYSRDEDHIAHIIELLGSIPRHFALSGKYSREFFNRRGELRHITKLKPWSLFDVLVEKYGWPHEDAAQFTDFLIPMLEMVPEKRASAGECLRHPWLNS

[11] = target: AP2-associated protein kinase 1 (Homo sapiens, UniProt Q2M2I8); test: Selectivity interaction (Ambit KINOMEscan and KiNATiv profiling in Jurkat cells) EUB0000090b AAK1; type: cell-based; conditions: at 1 µM
Sequence of AP2-associated protein kinase 1 (Q2M2I8 whole entry, looked up): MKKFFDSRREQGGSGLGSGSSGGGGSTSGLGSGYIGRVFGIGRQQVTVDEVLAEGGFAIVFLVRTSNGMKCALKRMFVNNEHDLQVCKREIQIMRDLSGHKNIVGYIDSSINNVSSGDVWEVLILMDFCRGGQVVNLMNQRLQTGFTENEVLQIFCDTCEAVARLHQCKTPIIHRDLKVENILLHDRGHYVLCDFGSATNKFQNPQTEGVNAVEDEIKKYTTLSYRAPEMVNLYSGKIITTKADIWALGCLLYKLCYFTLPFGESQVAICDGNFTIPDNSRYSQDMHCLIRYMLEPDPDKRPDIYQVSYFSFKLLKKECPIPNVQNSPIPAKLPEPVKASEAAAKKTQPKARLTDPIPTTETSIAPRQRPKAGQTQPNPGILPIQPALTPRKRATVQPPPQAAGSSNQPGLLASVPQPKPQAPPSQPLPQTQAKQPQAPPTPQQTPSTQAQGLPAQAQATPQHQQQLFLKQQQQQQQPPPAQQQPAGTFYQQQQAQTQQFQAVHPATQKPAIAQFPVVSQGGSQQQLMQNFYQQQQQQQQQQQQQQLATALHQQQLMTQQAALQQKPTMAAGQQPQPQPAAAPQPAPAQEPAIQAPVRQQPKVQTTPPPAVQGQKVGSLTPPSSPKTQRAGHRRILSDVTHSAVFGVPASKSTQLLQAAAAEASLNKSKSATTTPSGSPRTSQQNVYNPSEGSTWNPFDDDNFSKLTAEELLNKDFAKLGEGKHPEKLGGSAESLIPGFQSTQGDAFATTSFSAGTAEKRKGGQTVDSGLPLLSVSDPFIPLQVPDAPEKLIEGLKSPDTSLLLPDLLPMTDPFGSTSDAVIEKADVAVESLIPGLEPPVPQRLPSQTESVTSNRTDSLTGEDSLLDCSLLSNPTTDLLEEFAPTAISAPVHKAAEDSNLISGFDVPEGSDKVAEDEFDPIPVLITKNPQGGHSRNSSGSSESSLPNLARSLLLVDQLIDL

Sequence of Death-associated protein kinase 3 (Homo sapiens) (O43293 whole entry, looked up): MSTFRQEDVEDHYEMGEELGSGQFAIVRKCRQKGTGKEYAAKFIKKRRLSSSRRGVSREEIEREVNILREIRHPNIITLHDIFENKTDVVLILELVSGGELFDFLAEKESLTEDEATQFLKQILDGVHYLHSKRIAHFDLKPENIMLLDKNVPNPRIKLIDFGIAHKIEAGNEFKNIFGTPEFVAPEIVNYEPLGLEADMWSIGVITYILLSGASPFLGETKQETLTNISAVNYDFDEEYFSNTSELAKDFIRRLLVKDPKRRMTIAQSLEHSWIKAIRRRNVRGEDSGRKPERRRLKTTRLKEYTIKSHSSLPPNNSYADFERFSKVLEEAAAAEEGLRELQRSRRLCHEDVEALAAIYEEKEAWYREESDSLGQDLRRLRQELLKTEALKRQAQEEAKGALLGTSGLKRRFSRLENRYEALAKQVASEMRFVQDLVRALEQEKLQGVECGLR

COc1cc(N(C)c2ccnc3ccc(C(F)(F)F)cc23)cc(OC)c1OC
% binding [1]: 91%

CNCCN1CCC(c2cc(CN(C)C(=O)c3cccc(Oc4ccccc4)c3)ccn2)CC1
% activity [2]: > 90%

CN(C(=O)c1cnn2cccnc12)c1cc2c(cc1N1CCOCC1)C(=O)N(C[C@@H](F)C(C)(C)O)C2
dTM [3]: -0.8 K

C=CC(=O)Nc1cc(-n2c(=O)ccc3cnc4ccc(-c5ccc(NS(C)(=O)=O)cc5)cc4c32)ccc1C
% of control ([4]; at 1 µM): 91%
% of control ([4]; at 10 µM): 100%

CCc1cccc(CC)c1NC(=O)c1nn(C)c2c1CCc1cnc(Nc3ccc(C(=O)NC4CCN(C)CC4)cc3OC(F)(F)F)nc1-2
IC50 [5]: > 10 µM

COc1cc(C(=O)N2CC[C@@H](O)[C@@H](N)C2)cc2nc(-c3cc4ccccc4n3CC3CC3)n(C)c12
pXC50 [6]: < 4.4 M

N#Cc1cccc(-c2c[nH]c3ncnc(N4CCOCC4)c23)c1
% of control [7]: 70%

CC(C)(O)[C@H](F)CN1Cc2cc(NC(=O)c3cnn4cccnc34)c(N3CCOCC3)cc2C1=O
dTM [8]: 2.1 K

CC[C@@H]1[C@H](F)C(=O)N[C@@H]1COc1nccc2cc(C(N)=O)c(OC)cc12 [ZIMLOVISERTIB]
% of inhibition [9]: 10.7%

CCN(CC)CCCCNc1ncc2cc(-c3cc(OC)cc(OC)c3)c(NC(=O)NC(C)(C)C)nc2n1
% of control [10]: 100%

CN(C)C/C=C/C(=O)Nc1ccc(C(=O)N2CCCC(Nc3ncc(Cl)c(-c4c[nH]c5ccccc45)n3)C2)cc1 (configuration not stated)
% of control [11]: 89%
